Patent EP4631938A1, “NITROGEN-CONTAINING HETEROCYCLE WITH SEROTONIN RECEPTOR-BINDING ACTIVITY AND CARBOCYCLIC DERIVATIVE” (Shionogi & Co., Ltd, priority 2022, dated 2024)

Key:
[1] = target: T1, human recombinant 5-HT2A receptor (Homo sapiens, UniProt P28223); test: Test Example 1-2: 5-HT2A receptor binding inhibition test ([3H]-Ketanserin; non-specific ligand Ketanserin); settings: [3H]-Ketanserin; non-specific binding with 500 µmol/L Ketanserin; room temperature (25°C), 1.5 hours; read-out: h 5-HT2A Ki
T1 construct: expressed in transfected cells; host or cells: Jump-In HEK cells (membrane preparation)
T1 sequence (P28223 whole entry): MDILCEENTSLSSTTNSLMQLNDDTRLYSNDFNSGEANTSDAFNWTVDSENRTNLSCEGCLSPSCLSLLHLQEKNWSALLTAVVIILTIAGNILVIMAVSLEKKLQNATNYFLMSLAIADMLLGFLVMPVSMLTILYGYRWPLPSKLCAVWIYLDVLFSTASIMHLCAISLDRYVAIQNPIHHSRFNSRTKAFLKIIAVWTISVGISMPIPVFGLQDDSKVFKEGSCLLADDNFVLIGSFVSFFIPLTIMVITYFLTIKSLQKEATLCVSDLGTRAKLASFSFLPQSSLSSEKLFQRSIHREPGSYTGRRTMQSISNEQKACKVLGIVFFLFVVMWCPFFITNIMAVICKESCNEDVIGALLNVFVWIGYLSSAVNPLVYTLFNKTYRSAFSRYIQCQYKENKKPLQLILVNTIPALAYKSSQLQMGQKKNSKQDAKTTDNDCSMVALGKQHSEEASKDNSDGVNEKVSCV
Method: The Kd value is calculated when the lot of the cell membrane is changed. 1 mmol/L non-specific binding calculating compound dissolved in DMSO or DMSO is previously dispensed to the microplate by 0.5 µL, and the cell membrane is diluted with an Assay buffer. The radioactive ligand solution is diluted step by step, and counts are checked with a liquid scintillator. The Assay buffer containing diluted cell membranes is dispensed by 50 µL/well into the microplate. The radioactive ligand solution is then dispensed by 50 µL/well into the microplate and the plate is sealed. The microplate is allowed to stand for 1.5 hours at room temperature (25°C). During this time, 50 mmol/L Tris-HCl (pH 7.4) is dispensed by 50 µL/well into the UniFilter plate and allowed to stand at 4°C for 1 hour or longer. Thereafter, filtration is performed with a Cell Harvester (PerkinElmer). The radioactive ligand solution is dispensed by 10 µL/well into empty wells of the UniFilter plate. After drying the UniFilter plate at room temperature, MicroScinti20 is dispensed by 50 µL/well into the UniFilter plate, and the plate is sealed. UniFilter plate is allowed to stand at room temperature overnight. The radioactivity of [^3H]-Ketanserin bound to the 5-HT2A receptor is measured using Microbeta2 (PerkinElmer) at a measurement time of 1 min/well. The Saturation curve is drawn from the measured value, and the Kd value is calculated from the slope of the Scatchard Plot.
A compound solution dissolved in DMSO is dispensed to a microplate by 0.5 µL, and a cell membrane and a hot ligand are each diluted with an Assay buffer. The Assay buffer containing diluted cell membrane is then dispensed by 50 µL/well into the microplate. The radioactive ligand solution is then dispensed by 50 µL/well into the microplate and the plate is sealed. Thereafter, the microplate is allowed to stand at room temperature (25°C) for 1.5 hours. During this time, 50 mmol/L Tris-HCl (pH 7.4) is dispensed by 50 µL/well into the UniFilter plate and allowed to stand at 4°C for 1 hour or longer. Thereafter, filtration is performed with a Cell Harvester (PerkinElmer). After drying the UniFilter plate at room temperature, MicroScinti20 is dispensed by 50 µL/well into the UniFilter plate, and the plate is sealed. UniFilter plate is allowed to stand at room temperature overnight. The radioactivity of [^3H]-Ketanserin bound to the 5-HT2A receptor is measured using Microbeta2 (PerkinElmer) at a measurement time of 1 min/well. Non-specific binding is calculated from the radioactivity of [^3H]-Ketanserin in the presence of 500 µmol/L Ketanserin of unlabeled ligand, and total binding is calculated from the radioactivity of [^3H]-Ketanserin in the absence of the compound of the present invention (Vehicle). Finally, the Ki value is calculated from the dose-response curve.
(§1) (The binding activity of the compound according to the present invention is calculated from the following binding inhibition rate (%).) Inhibition rate (%) = [1−(c−a)/(b−a)] × 100 [formula] • a; average cpm of non-specific binding • b; average cpm of total binding • c; cpm in the presence of the test compound
(§2) The compounds of the present invention were tested essentially as described above.

[2] = target: T2, human recombinant 5-HT2C receptor (Homo sapiens, UniProt P28335); test: Test Example 2: 5-HT2C receptor binding inhibition test ([3H]-Mesulergine; non-specific ligand Serotonin HCl); settings: human serotonin 5-HT2C receptor binding activity
T2 construct: expressed in transfected cells; host or cells: Jump-In HEK cells (membrane preparation)
T2 sequence (P28335 33-458): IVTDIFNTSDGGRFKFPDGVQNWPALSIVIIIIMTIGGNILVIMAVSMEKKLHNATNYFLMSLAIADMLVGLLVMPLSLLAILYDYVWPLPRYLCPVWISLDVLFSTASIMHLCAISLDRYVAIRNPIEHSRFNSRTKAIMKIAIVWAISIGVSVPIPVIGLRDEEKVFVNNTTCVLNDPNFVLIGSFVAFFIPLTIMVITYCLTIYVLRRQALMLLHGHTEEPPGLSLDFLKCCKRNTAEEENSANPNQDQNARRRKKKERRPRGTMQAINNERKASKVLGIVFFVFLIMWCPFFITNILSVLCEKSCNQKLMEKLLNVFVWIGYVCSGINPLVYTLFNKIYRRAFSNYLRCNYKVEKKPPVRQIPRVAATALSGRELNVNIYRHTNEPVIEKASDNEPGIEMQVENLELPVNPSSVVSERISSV
Method: The Kd value is calculated when the lot of the cell membrane is changed. 1 mmol/L non-specific binding calculating compound dissolved in DMSO or DMSO is previously dispensed to the microplate by 0.5 µL, and the cell membrane is diluted with an Assay buffer. The radioactive ligand solution is diluted step by step, and counts are checked with a liquid scintillator. The Assay buffer containing diluted cell membranes is dispensed by 50 µL/well into the microplate. The radioactive ligand solution is then dispensed by 50 µL/well into the microplate and the plate is sealed. The microplate is allowed to stand at 37°C for 2 hours. During this time, 50 mmol/L Tris-HCl (pH 7.4) is dispensed by 50 µL/well into the GF/B UniFilter plate and allowed to stand at 4°C for 1 hour or longer. Thereafter, filtration is performed with a Cell Harvester (PerkinElmer). The radioactive ligand solution is dispensed by 10 µL/well into empty wells of the GF/B UniFilter plate. After drying the GF/B UniFilter plate at room temperature, MicroScinti20 is dispensed by 50 µL/well into the GF/B UniFilter plate, and the plate is sealed. GF/B UniFilter plate is allowed to stand at room temperature overnight. The radioactivity of [^3H]-Mesulergine bound to the 5-HT2C receptor is measured using Microbeta2 (PerkinElmer) at a measurement time of 1 min/well. The Saturation curve is drawn from the measured value, and the Kd value is calculated from the slope of the Scatchard Plot.
A compound solution dissolved in DMSO is dispensed to a microplate by 0.5 µL, and a cell membrane and a hot ligand are each diluted with an Assay buffer. The Assay buffer containing diluted cell membrane is then dispensed by 50 µL/well into the microplate. The radioactive ligand solution is then dispensed by 50 µL/well into the microplate and the plate is sealed. The microplate is then allowed to stand at 37°C for 2 hours. During this time, 50 mmol/L Tris-HCl (pH 7.4) is dispensed by 50 µL/well into the GF/B UniFilter plate and allowed to stand at 4°C for 1 hour or longer. Thereafter, filtration is performed with a Cell Harvester (PerkinElmer). After drying the GF/B UniFilter plate at room temperature, MicroScinti20 is dispensed by 50 µL/well into the GF/B UniFilter plate, and the plate is sealed. GF/B UniFilter plate is allowed to stand at room temperature overnight. The radioactivity of [^3H]-Mesulergine bound to the 5-HT2C receptor is measured using Microbeta2 (PerkinElmer) at a measurement time of 1 min/well. Non-specific binding is calculated from the radioactivity of [^3H]-Mesulergine in the presence of 500 µmol/L Serotonin HCl of unlabeled ligand, and total binding is calculated from the radioactivity of [^3H]-Mesulergine in the absence of the compound of the present invention (Vehicle). Finally, the Ki value is calculated from the dose-response curve.
as §1, §2

Compound	Ki [1] [nM]	Ki [2] [nM]
Cc1cc(OC(F)F)cnc1Nc1cc(-c2c(Br)cnn2C)c(OCCO)cn1 [Compound I-177]	0.331	0.63
Cc1cnn(C)c1-c1cc(Nc2ncc(OC(F)F)cc2F)ncc1OCCO [Compound I-178]	0.386	3.34
Cc1cc(OC(F)(F)F)cnc1Nc1cc(-c2c(Br)cnn2C)c(OCCO)cn1 [Compound I-179]	0.278	0.296
Cc1cc(OC(F)(F)F)cnc1Nc1cc(-c2c(C)cnn2C)c(OCCO)cn1 [Compound I-180]	0.346	1.86
Cc1nc(C)c(-c2cc(Nc3ncc(OC(F)(F)F)cc3C)ncc2OCCO)c(C)n1 [Compound I-181]	0.984	3.62
CC(C)Oc1ccc(Nc2cc(-c3c(Br)cnn3C)c(OCCO)cn2)nc1 [Compound I-182]	0.475	4.75
Cc1cnn(C)c1-c1cc(Nc2ncc(OC(F)(F)F)cc2Cl)ncc1OCCO [Compound I-183]	0.271	1.22
COCc1nc(C)c(-c2cc(Nc3ncc(C(F)(F)F)cc3F)c(F)cc2OCCO)c(C)n1 [Compound I-184]	3.84	2.98
Cn1ncc(Br)c1-c1cc(Nc2ccc(OC3CC3)cn2)ncc1OCCO [Compound I-185]	0.42	2.76
COCc1nc(C)c(-c2cc(Nc3ncc(OC(F)(F)F)cc3C)ncc2OCCO)c(C)n1 [Compound I-186]	1.75	1.73
Cn1ncc(C#N)c1-c1cc(Nc2ncc(OC(F)(F)F)cc2Cl)ncc1OCCO [Compound I-187]	0.183	2.9
Cn1ncc(C#N)c1-c1cc(Nc2ccc(-c3ccc(F)cc3)cn2)ncc1OCCO [Compound I-188]	0.181	1.87
Cn1ncc(C#N)c1-c1cc(Nc2ccc(-c3ccc(Cl)cc3)cn2)ncc1OCCO [Compound I-189]	0.217	0.663
Cn1ncc(C#N)c1-c1nc(Nc2ccc(-c3ccc(F)cc3)cn2)c(F)cc1OCCO [Compound I-190]	0.493	9.08
Cn1ncc(C#N)c1-c1nc(Nc2ccc(-c3ccc(Cl)cc3)cn2)c(F)cc1OCCO [Compound I-191]	0.473	5.29
COCc1nc(C)c(-c2cc(Nc3ccc(C4CC(F)(F)C4)cn3)ncc2OCCO)c(C)n1 [Compound I-192]	2.31	9.15
COCc1nc(C)c(-c2nc(Nc3ccc(C4CCC4)cn3)c(F)cc2OCCO)c(C)n1 [Compound I-193]	3.43	3.76
COCc1nc(C)c(-c2cc(Nc3ncc(C4CC(F)(F)C4)cc3Cl)ncc2OCCO)c(C)n1 [Compound I-195]	6.75	2.1

Compound	Ki [1] [nM]	Ki [2] [nM]
COCc1nc(C)c(-c2cc(Nc3ncc(OC(F)(F)F)cc3OC)ncc2OCCO)c(C)n1 [Compound I-196]	4.46	5.17
Cc1nc(C)c(-c2cc(Nc3ncc(C(F)(F)F)cc3F)c(F)cc2OC[C@H](C)O)c(C)n1 [Compound I-197]	2.83	65.6
COCc1nc(C)c(-c2cc(Nc3ncc(C(F)(F)F)cc3F)ncc2OCCO)c(C)n1 [Compound I-199]	6.09	5.98
COCc1nc(C)c(-c2cc(Nc3ncc(C(F)(F)F)cc3Cl)ncc2OCCO)c(C)n1 [Compound I-201]	2.26	2.54
Cc1ncnc(C)c1-c1cc(Nc2ncc(C(F)(F)F)cc2Cl)ncc1OCCO [Compound I-202]	0.828	9.12
Cc1nc(COC(F)F)nc(C)c1-c1cc(Nc2ncc(C(F)(F)F)cc2Cl)ncc1OCCO [Compound I-203]	1.97	1.82
Cc1nc(COC(C)C)nc(C)c1-c1cc(Nc2ncc(C(F)(F)F)cc2Cl)ncc1OCCO [Compound I-204]	2.35	2.7
COCCOCc1nc(C)c(-c2cc(Nc3ncc(C(F)(F)F)cc3Cl)ncc2OCCO)c(C)n1 [Compound I-205]	2.94	0.752
Cc1nc(C2CC2)nc(C)c1-c1cc(Nc2ncc(C(F)(F)F)cc2Cl)ncc1OCCO [Compound I-206]	1.3	1.78
Cc1nc(C2COC2)nc(C)c1-c1cc(Nc2ncc(C(F)(F)F)cc2Cl)ncc1OCCO [Compound I-207]	2.23	6.02
Cc1nc(C2CCC2)nc(C)c1-c1cc(Nc2ncc(C(F)(F)F)cc2Cl)ncc1OCCO [Compound I-208]	1.02	1.67
Cc1nc(N2CCCC2)nc(C)c1-c1cc(Nc2ncc(C(F)(F)F)cc2Cl)ncc1OCCO [Compound I-209]	1.71	5.63
COc1nc(C)c(-c2cc(Nc3ncc(C(F)(F)F)cc3Cl)ncc2OCCO)c(C)n1 [Compound I-210]	0.804	3.67
Cc1nc(OCC(F)F)nc(C)c1-c1cc(Nc2ncc(C(F)(F)F)cc2Cl)ncc1OCCO [Compound I-211]	0.706	1.89
Cc1nc(OC2CC2)nc(C)c1-c1cc(Nc2ncc(C(F)(F)F)cc2Cl)ncc1OCCO [Compound I-212]	1.22	3.89
COCCOc1nc(C)c(-c2cc(Nc3ncc(C(F)(F)F)cc3Cl)ncc2OCCO)c(C)n1 [Compound I-213]	1.26	4.07
Cc1nc(N2CCCC2=O)nc(C)c1-c1cc(Nc2ncc(C(F)(F)F)cc2Cl)ncc1OCCO [Compound I-215]	4.48	9.55
